Marks after values point to notes of the source that are not given here.
System: Sprague-Dawley rats
Assay: Embryo-fetal developmental toxicity study in Sprague-Dawley rats (Example 3)
Protocol: For this study, a total of 140 time-mated female rats (approximately 8 to 10 weeks of age) were obtained from Charles River Laboratories, Raleigh, North Carolina, and acclimated from the time of arrival until the time of dosing on GD 6. During the acclimation period, the animals were observed twice daily with respect to general health and any signs of disease. All animals were given a detailed clinical examination and body weights were recorded prior to selection. […] Food consumption was collected during the acclimation period.
Animals received in-life and postmorten evaluations. […] All fetuses were given an external and visceral or skeletal examination.
Detailed clinical observations were made daily from GD 6 through 20 (4 hours±1 hour postdose on dosing days).
Food consumption for main study animals was measured and recorded on the corresponding body weight days and calculated for the same intervals.
The placentae were examined grossly.
The foci, if detected, were considered early resorptions, and data from this female were included in mean calculations

Structure (SMILES): CC(C)NC(=O)COc1cccc(-c2nc(Nc3ccc4[nH]ncc4c3)c3ccccc3n2)c1 [belumosudil, 2-{3-[4-(1H-indazol-5-ylamino)-2-quinazolinyl]phenoxy}-N-(propan-2-yl) acetamide]
- Maternal Body Weight Change GD 6-9 (15 mg base/kg/day): 10.0 g
- Maternal Body Weight Change GD 6-18 (15 mg base/kg/day): 93.8 g
- Maternal Body Weight Change GD 6-20 (15 mg base/kg/day): 127.9 g
- Maternal Body Weight Change GD 18-20 (15 mg base/kg/day): 34.0 g
- Maternal Body Weight GD 9 (15 mg base/kg/day): 231.7 g
- Maternal Body Weight GD 12 (15 mg base/kg/day): 257.0 g
- Maternal Body Weight GD 15 (15 mg base/kg/day): 272.8 g
- Maternal Body Weight GD 18 (15 mg base/kg/day): 315.5 g
- Maternal Body Weight GD 20 (15 mg base/kg/day): 349.6 g
- Maternal Food Consumption GD 6-9 (15 mg base/kg/day): 19.0
- Maternal Food Consumption GD 6-18 (15 mg base/kg/day): 22.6
- Maternal Food Consumption GD 6-20 (15 mg base/kg/day): 23.2
- Maternal Food Consumption GD 18-20 (15 mg base/kg/day): 27.3
- Mean Fetal Body Weight Females (15 mg base/kg/day): 4.00 g
- Mean Fetal Body Weight Genders Combined (15 mg base/kg/day): 4.10 g
- Mean Fetal Body Weight Males (15 mg base/kg/day): 4.19 g
- Adjusted Final Body Weight, Mean (15 mg base/kg/day (N = 25)): 278.5 g
- Adjusted Weight Change From Day 6, Mean (15 mg base/kg/day (N = 25)): 56.8
- Final Body Weight, Mean (15 mg base/kg/day (N = 25)): 349.6 g
- Gravid Uterine Weight, Mean (15 mg base/kg/day (N = 25)): 71.0 g
- Discharge, Brown, Vulva, times observed/animals (15 mg base/kg/day, GD 6-20): 1/1
- Discharge, Red, Vulva, times observed/animals (15 mg base/kg/day, GD 6-20): 0/0
- Ear/portion of ear missing, Ear/left, times observed/animals (15 mg base/kg/day, GD 6-20): 13/1
- Hair sparse, Abdominal region, times observed/animals (15 mg base/kg/day, GD 6-20): 7/1
- Hair sparse, Cervical region, times observed/animals (15 mg base/kg/day, GD 6-20): 0/0
- Hair sparse, Forefoot/left, times observed/animals (15 mg base/kg/day, GD 6-20): 4/2
- Hair sparse, Forefoot/right, times observed/animals (15 mg base/kg/day, GD 6-20): 0/0
- Hair sparse, Forelimb/left, times observed/animals (15 mg base/kg/day, GD 6-20): 12/3
- Hair sparse, Forelimb/right, times observed/animals (15 mg base/kg/day, GD 6-20): 17/3
- Hair sparse, Hind limb/left, times observed/animals (15 mg base/kg/day, GD 6-20): 0/0
- Hair sparse, Hind limb/right, times observed/animals (15 mg base/kg/day, GD 6-20): 0/0
- Hair sparse, Lumbar region, times observed/animals (15 mg base/kg/day, GD 6-20): 0/0
- Hair sparse, Thoracic region, times observed/animals (15 mg base/kg/day, GD 6-20): 0/0
- Scabbed area, Face, times observed/animals (15 mg base/kg/day, GD 6-20): 7/1
- Scabbed area, Forelimb/right, times observed/animals (15 mg base/kg/day, GD 6-20): 4/1
- Scabbed area, Tail, times observed/animals (15 mg base/kg/day, GD 6-20): 0/0
- Scabbed area, Thoracic region, times observed/animals (15 mg base/kg/day, GD 6-20): 1/1
- Tail missing - portion, times observed/animals (15 mg base/kg/day, GD 6-20): 0/0
- Maternal Body Weight Change GD 6-9 (50 mg base/kg/day): 6.2^b g
- Maternal Body Weight Change GD 6-18 (50 mg base/kg/day): 78.8^b g
- Maternal Body Weight Change GD 6-20 (50 mg base/kg/day): 115.9^b g
- Maternal Body Weight Change GD 18-20 (50 mg base/kg/day): 37.1 g
- Maternal Body Weight GD 9 (50 mg base/kg/day): 225.5^a g
- Maternal Body Weight GD 12 (50 mg base/kg/day): 246.3^b g
- Maternal Body Weight GD 15 (50 mg base/kg/day): 262.6^b g
- Maternal Body Weight GD 18 (50 mg base/kg/day): 298.1^b g
- Maternal Body Weight GD 20 (50 mg base/kg/day): 335.2^b g
- Maternal Food Consumption GD 6-9 (50 mg base/kg/day): 15.5^b
- Maternal Food Consumption GD 6-18 (50 mg base/kg/day): 20.0^b
- Maternal Food Consumption GD 6-20 (50 mg base/kg/day): 21.3^b
- Maternal Food Consumption GD 18-20 (50 mg base/kg/day): 29.0
- Mean Fetal Body Weight Females (50 mg base/kg/day): 3.94 g
- Mean Fetal Body Weight Genders Combined (50 mg base/kg/day): 4.06 g
- Mean Fetal Body Weight Males (50 mg base/kg/day): 4.19 g
- Adjusted Final Body Weight, Mean (50 mg base/kg/day (N = 25)): 266.4^b g
- Adjusted Weight Change From Day 6, Mean (50 mg base/kg/day (N = 25)): 47.1^b
- Final Body Weight, Mean (50 mg base/kg/day (N = 25)): 335.2^b g
- Gravid Uterine Weight, Mean (50 mg base/kg/day (N = 25)): 68.8 g
- Discharge, Brown, Vulva, times observed/animals (50 mg base/kg/day, GD 6-20): 1/1
- Discharge, Red, Vulva, times observed/animals (50 mg base/kg/day, GD 6-20): 4/4
- Ear/portion of ear missing, Ear/left, times observed/animals (50 mg base/kg/day, GD 6-20): 0/0
- Hair sparse, Abdominal region, times observed/animals (50 mg base/kg/day, GD 6-20): 0/0
- Hair sparse, Cervical region, times observed/animals (50 mg base/kg/day, GD 6-20): 8/1
- Hair sparse, Forefoot/left, times observed/animals (50 mg base/kg/day, GD 6-20): 0/0
- Hair sparse, Forefoot/right, times observed/animals (50 mg base/kg/day, GD 6-20): 0/0
- Hair sparse, Forelimb/left, times observed/animals (50 mg base/kg/day, GD 6-20): 10/2
- Hair sparse, Forelimb/right, times observed/animals (50 mg base/kg/day, GD 6-20): 10/2
- Hair sparse, Hind limb/left, times observed/animals (50 mg base/kg/day, GD 6-20): 0/0
- Hair sparse, Hind limb/right, times observed/animals (50 mg base/kg/day, GD 6-20): 0/0

— US20240277713A1 (Kadmon Corporation, LLC, priority 2022, published 2024)
